Results from patent publication US20070254856A1, “Use of acetylsalicylic acid (ASA) in the application of a membrane lung” (priority 2006, published 2007).

Key:
platelet aggregation = platelet aggregation in the patient receiving ASA with NovaLung iLA treatment, standard clinical methods; format: in vivo, human
Protocol: The membrane lung NovaLung iLA itself was used in the manner described by Fischer el al., loc cit. The platelet aggregation was determined using standard clinical methods.

[1] = system: patient treated with the membrane lung NovaLung iLA; experiment: application of the membrane lung NovaLung iLA on a patient receiving ASA; scanning electron microscope image of the gas exchange membrane; format: in vivo, human
Protocol: A patient who required treatment with the NovaLung iLA was administered 50 mg of ASA daily for 1 week before application of the membrane lung. This administration of 50 mg of ASA daily was initially maintained during application of the membrane lung, but the medicament was discontinued one week before removal of the membrane lung. […] FIG. 1 is a scanning electron microscope image of the gas exchange membrane from the membrane lung which was removed and dismantled after a period of use of 14 days on the patient thus treated and medicated.

Compound: CC(=O)Oc1ccccc1C(=O)O [ASA, acetylsalicylic acid]
- platelet aggregation (FIG. 3) (platelet aggregation; 50 mg ASA daily, during the second week of ASA administration): remained at its reduced value
- platelet aggregation (FIG. 3) (platelet aggregation; 50 mg ASA daily, within the first week of ASA administration, when the membrane lung was connected): below 20%
- platelet aggregation (FIG. 3) (platelet aggregation; two weeks after start of treatment with the membrane lung, 1 week after discontinuation of ASA): below 30%
- deposition of blood constituents on the gas exchange membrane (scanning electron microscope image, FIG. 1) ([1]; 50 mg ASA daily oral, membrane lung removed after period of use of 14 days on the patient): no deposition of blood constituents
- gas exchange performance and flow resistance of the membrane lung to the blood stream ([1]; 50 mg ASA daily, membrane lung left on the patient for 2 weeks): without an appreciable reduction in gas exchange performance or an appreciable increase in the flow resistance
